Legend:
Test in all cases: Kinase panel study
Assay type in all cases: biochemical
[1] = target: T1, CSF1R (FMS) (Homo sapiens, UniProt P07333); conditions: CSF1R (FMS); compound at 10µM; read-out: % of Inhibition
T1 construct: purchased Thermo Fisher Scientific
Description: (§1) The Kinase panel study was entirely provided by Thermo Fisher Scientific using the two lead compounds MW01 and MW05 as well as their derivatives (MW01-E06, MW01-E10, MW01-E14, MW01-E18, MW05-E2, MW05-E3, MW05-E9 and MW05-E10. The experiment was performed using the ZLyte or Adapta protocol according to manufacturer standard operating procedures.
(§2) Based on their similar effects in our screen and molecular analysis, MW01 and MW05 were used in comparative target deconvolution studies seeking common targets despite their distinct structures. To eliminate previously identified kinases regulating NF-κB activity, such as IKK, as possible targets of MW01 and MW05, an in vitro kinase inhibition assay was performed. […] We next investigated if any of the shared kinase targets of MW01 and MW05 play a role in genotoxic stress-induced NF-κB activity and established several criteria to narrow down pathway-relevant targets. Considering the similar NF-κB inhibition phenotypes of both compounds, we hypothesized first that the target should be shared by both lead compounds. Second, based on the CaCo2 recovery values and experimental treatment concentration of 10 µM), the putative target kinase should have a low IC50 of, at most, 2000 nM for both lead compounds in the in vitro kinase panel (Fig. 2A). Based on these criteria alone, we arrived at a relatively short list of potential targets for further analysis, leaving only PIK3CG, PIK3C2G, and CLK2 (Fig. 2B). IC50 values for PIK3C2G by both lead compounds agreed best with these criteria, but RNA expression analysis indicates high tissue specificity as well as lack of expression of this kinase in our U2-OS model cell line, which we then eliminated from further analysis (Uhlén et al., 2015). […] Table 6: Percentage of inhibition of the indicated kinases by MW01 or MW05 at either 10 µM or 1 µM. n.d. = not determined.

[2] = target: T2, BTK (Homo sapiens, UniProt Q06187); conditions: BTK; compound at 10µM; read-out: % of Inhibition
T2 construct: purchased Thermo Fisher Scientific
Description: as §1, §2

[3] = target: T3, PI4K2A (PI4K2 alpha) (Homo sapiens, UniProt Q9BTU6); conditions: PI4K2A (PI4K2 alpha); compound at 10µM; read-out: % of Inhibition
T3 construct: purchased Thermo Fisher Scientific
Description: as §1, §2

[4] = target: T4, PIK3C2A (PI3K-C2 alpha) (Homo sapiens, UniProt O00443); conditions: PIK3C2A (PI3K-C2 alpha); compound at 10µM; read-out: % of Inhibition
T4 construct: purchased Thermo Fisher Scientific
Description: as §1, §2

[5] = target: T5, DYRK1A (Homo sapiens, UniProt Q13627); conditions: DYRK1A; compound at 10µM; read-out: % of Inhibition
T5 construct: purchased Thermo Fisher Scientific
Description: as §1, §2

[6] = target: T6, ALK (Homo sapiens, UniProt Q9UM73); conditions: ALK; compound at 10µM; read-out: % of Inhibition
T6 construct: purchased Thermo Fisher Scientific
Description: as §1, §2

[7] = target: T7, PI4KB (PI4K beta) (Homo sapiens, UniProt Q9UBF8); conditions: PI4KB (PI4K beta); compound at 10µM; read-out: % of Inhibition
T7 construct: purchased Thermo Fisher Scientific
Description: as §1, §2

[8] = target: T8, EGFR (ErbB1) (Homo sapiens, UniProt P00533); conditions: EGFR (ErbB1); compound at 10µM; read-out: % of Inhibition
T8 construct: purchased Thermo Fisher Scientific
Description: as §1, §2

[9] = target: T9, PIK3CA/PIK3R1 (p11 0 alpha/p85 alpha) (Homo sapiens, UniProt P42336); conditions: PIK3CA/PIK3R1; compound at 10µM; read-out: % of Inhibition
T9 construct: purchased Thermo Fisher Scientific
Description: as §1, §2

[10] = target: T10, PIP5K1A (Homo sapiens, UniProt Q99755); conditions: PIP5K1A; compound at 10µM; read-out: % of Inhibition
T10 construct: purchased Thermo Fisher Scientific
Description: as §1, §2

[11] = target: T11, BLK (Homo sapiens, UniProt P51451); conditions: BLK; compound at 10µM; read-out: % of Inhibition
T11 construct: purchased Thermo Fisher Scientific
Description: as §1, §2

[12] = target: T12, PIK3CA/PIK3R3 (p11 0 alpha/p55 gamma) (Homo sapiens, UniProt P42336); conditions: PIK3CA/PIK3R3; compound at 10µM; read-out: % of Inhibition
T12 construct: purchased Thermo Fisher Scientific
Description: as §1, §2

[13] = target: T13, DYRK1B (Homo sapiens, UniProt Q9Y463); conditions: DYRK1B; compound at 10µM; read-out: % of Inhibition
T13 construct: purchased Thermo Fisher Scientific
Description: as §1, §2

[14] = target: T14, IRAK1 (Homo sapiens, UniProt P51617); conditions: IRAK1; compound at 10µM; read-out: % of Inhibition
T14 construct: purchased Thermo Fisher Scientific
Description: as §1, §2

[15] = target: T15, PIP5K1C (Homo sapiens, UniProt O60331); conditions: PIP5K1C; compound at 10µM; read-out: % of Inhibition
T15 construct: purchased Thermo Fisher Scientific
Description: as §1, §2

[16] = target: T16, LRRK2 (Homo sapiens, UniProt Q5S007); conditions: LRRK2; compound at 10µM; read-out: % of Inhibition
T16 construct: purchased Thermo Fisher Scientific
Description: as §1, §2

[17] = target: T17, GSG2 (Haspin) (Homo sapiens, UniProt Q8TF76); conditions: GSG2 (Haspin); compound at 10µM; read-out: % of Inhibition
T17 construct: purchased Thermo Fisher Scientific
T17 sequence (Q8TF76 1-798): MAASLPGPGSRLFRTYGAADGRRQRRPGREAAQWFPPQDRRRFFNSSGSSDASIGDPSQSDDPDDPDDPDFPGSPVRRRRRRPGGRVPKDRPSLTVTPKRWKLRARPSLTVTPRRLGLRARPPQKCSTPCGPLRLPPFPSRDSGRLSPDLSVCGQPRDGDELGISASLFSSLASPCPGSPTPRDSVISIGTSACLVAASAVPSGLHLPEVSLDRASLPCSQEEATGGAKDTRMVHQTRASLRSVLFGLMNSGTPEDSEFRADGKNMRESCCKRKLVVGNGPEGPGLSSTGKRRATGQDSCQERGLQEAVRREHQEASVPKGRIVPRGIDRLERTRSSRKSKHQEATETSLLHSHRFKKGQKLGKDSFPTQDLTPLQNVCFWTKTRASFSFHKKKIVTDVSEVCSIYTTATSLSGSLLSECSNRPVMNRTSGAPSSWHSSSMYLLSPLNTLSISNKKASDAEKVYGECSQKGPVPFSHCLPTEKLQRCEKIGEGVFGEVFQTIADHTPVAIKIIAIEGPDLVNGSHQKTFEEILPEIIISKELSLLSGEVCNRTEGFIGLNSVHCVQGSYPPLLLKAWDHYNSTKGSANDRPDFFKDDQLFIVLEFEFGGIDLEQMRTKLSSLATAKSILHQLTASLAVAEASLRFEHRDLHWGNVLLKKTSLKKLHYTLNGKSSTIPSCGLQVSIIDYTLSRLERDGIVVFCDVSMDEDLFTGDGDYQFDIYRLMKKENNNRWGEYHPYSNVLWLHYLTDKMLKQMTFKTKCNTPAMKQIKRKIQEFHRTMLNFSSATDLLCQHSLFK
Description: as §1, §2

[18] = target: T18, MINK1 (Homo sapiens, UniProt Q8N4C8); conditions: MINK1; compound at 10µM; read-out: % of Inhibition
T18 construct: purchased Thermo Fisher Scientific
Description: as §1, §2

[19] = target: T19, AKT2 (PKB beta) (Homo sapiens, UniProt P31751); conditions: AKT2 (PKB beta); compound at 10µM; read-out: % of Inhibition
T19 construct: purchased Thermo Fisher Scientific
Description: as §1, §2

[20] = target: T20, PIP5K1B (Homo sapiens, UniProt O14986); conditions: PIP5K1B; compound at 10µM; read-out: % of Inhibition
T20 construct: purchased Thermo Fisher Scientific
Description: as §1, §2

T2 sequence (Q06187 whole entry): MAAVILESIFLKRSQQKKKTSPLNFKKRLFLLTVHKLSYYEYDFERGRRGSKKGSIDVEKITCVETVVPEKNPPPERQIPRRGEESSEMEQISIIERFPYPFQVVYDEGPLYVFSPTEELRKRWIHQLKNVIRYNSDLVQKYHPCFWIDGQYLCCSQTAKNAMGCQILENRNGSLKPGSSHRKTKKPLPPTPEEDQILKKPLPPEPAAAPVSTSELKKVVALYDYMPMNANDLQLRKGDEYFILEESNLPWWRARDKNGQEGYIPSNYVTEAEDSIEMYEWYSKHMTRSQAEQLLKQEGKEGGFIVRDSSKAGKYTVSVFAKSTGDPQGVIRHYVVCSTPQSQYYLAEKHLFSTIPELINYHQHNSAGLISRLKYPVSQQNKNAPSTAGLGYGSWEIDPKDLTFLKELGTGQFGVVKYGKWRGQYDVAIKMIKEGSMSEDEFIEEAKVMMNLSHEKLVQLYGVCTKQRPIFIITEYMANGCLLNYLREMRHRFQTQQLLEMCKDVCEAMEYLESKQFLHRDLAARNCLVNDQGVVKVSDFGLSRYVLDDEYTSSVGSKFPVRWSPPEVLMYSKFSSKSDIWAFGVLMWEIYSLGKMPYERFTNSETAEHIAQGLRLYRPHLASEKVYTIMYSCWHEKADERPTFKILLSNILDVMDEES
T11 sequence (P51451 whole entry): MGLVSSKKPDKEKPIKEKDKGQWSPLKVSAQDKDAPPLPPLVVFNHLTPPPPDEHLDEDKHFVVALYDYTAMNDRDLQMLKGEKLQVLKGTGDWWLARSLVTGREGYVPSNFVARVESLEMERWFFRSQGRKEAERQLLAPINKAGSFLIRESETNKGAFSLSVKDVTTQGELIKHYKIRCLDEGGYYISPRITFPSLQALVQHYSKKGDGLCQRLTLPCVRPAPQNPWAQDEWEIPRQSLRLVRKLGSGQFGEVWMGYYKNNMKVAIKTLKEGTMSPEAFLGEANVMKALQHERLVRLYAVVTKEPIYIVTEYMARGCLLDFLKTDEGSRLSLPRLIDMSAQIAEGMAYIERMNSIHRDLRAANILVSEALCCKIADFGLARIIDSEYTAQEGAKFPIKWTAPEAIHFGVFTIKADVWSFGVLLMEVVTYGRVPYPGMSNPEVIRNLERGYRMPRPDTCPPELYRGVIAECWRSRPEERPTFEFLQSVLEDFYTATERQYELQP
T9 sequence (P42336 whole entry): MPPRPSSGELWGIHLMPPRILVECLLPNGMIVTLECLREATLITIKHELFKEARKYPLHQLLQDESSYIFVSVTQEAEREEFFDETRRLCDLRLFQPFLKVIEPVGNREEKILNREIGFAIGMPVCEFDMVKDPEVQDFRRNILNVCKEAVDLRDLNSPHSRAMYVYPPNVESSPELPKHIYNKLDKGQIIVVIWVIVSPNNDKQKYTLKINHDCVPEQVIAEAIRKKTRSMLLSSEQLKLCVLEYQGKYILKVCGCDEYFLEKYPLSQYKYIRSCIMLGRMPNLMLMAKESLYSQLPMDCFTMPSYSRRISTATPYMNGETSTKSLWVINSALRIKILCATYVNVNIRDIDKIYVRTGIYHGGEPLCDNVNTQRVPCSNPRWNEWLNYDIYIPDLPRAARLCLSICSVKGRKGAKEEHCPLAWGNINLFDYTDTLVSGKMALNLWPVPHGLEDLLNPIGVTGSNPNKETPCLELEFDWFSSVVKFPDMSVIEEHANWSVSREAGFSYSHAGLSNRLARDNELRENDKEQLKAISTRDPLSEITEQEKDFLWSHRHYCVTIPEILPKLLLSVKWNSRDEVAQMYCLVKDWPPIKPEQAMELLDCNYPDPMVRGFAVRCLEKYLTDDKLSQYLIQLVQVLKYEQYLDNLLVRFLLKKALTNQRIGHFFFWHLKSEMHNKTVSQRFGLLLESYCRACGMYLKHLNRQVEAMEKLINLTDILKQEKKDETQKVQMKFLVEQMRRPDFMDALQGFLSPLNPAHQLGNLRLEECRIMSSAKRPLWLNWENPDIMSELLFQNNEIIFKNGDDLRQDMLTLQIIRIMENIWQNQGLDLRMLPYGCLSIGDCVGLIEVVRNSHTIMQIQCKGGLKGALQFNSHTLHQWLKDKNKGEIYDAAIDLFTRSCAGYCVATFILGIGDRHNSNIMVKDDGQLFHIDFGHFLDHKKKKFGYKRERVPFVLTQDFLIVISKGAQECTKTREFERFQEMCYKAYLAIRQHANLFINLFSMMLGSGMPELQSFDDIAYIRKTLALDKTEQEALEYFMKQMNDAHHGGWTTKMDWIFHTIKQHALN
T9 sequence (P27986 whole entry partner): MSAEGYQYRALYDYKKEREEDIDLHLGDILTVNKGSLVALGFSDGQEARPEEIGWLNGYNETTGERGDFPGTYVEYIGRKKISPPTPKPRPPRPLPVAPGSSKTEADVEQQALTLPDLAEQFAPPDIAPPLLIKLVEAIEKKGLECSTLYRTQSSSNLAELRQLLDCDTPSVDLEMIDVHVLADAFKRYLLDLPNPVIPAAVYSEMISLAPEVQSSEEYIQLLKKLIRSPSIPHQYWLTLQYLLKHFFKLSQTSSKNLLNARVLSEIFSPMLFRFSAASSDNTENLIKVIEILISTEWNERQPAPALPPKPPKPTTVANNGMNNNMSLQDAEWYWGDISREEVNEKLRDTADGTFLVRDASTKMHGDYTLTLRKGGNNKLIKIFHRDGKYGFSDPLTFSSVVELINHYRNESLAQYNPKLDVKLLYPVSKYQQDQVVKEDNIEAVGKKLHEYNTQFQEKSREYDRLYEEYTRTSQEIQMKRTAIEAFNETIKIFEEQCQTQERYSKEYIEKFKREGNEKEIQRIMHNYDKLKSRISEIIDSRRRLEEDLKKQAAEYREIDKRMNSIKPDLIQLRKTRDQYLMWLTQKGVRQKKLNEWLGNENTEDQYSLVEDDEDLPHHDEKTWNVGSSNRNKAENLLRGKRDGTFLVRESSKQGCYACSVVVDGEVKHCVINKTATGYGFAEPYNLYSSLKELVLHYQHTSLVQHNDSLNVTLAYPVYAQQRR
T16 sequence (Q5S007 970-2527 limits assumed): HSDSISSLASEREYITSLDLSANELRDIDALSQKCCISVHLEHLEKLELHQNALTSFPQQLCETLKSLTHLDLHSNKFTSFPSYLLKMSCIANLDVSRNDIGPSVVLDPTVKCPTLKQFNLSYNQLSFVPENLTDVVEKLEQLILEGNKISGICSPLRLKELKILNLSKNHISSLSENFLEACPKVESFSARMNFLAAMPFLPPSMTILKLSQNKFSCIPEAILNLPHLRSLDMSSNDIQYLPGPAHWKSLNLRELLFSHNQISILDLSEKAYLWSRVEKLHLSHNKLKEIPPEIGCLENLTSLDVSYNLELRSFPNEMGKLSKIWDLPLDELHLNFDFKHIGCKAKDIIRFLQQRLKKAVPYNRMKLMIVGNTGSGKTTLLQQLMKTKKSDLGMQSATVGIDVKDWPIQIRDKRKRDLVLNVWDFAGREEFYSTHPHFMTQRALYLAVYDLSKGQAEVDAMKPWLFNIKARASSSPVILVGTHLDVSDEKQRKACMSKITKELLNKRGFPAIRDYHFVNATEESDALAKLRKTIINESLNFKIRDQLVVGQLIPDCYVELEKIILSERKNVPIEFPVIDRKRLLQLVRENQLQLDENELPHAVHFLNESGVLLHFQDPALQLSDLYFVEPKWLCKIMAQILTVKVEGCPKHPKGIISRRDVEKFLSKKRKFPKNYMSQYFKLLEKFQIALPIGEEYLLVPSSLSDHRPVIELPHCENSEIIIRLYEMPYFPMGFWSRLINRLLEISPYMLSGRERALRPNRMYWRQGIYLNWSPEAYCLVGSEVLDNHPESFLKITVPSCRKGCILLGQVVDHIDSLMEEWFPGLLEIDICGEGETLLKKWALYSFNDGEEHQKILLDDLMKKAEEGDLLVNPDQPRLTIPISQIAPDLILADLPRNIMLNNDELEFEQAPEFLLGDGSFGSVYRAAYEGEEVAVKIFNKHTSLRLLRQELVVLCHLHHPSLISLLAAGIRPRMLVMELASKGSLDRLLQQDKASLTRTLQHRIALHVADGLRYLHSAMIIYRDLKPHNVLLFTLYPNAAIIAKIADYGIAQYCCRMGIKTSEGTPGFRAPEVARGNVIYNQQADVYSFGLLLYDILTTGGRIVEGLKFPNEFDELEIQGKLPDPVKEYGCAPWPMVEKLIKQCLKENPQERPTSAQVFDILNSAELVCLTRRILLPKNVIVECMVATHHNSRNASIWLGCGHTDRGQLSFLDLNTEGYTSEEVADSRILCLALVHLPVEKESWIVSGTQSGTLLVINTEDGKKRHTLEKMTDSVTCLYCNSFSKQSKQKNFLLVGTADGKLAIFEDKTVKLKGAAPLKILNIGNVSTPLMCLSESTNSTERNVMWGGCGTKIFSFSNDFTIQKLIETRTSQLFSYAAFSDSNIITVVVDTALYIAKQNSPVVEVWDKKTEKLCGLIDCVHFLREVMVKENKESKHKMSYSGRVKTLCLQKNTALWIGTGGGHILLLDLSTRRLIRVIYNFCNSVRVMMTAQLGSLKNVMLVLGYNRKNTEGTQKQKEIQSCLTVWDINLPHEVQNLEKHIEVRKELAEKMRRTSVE
T20 sequence (O14986 whole entry): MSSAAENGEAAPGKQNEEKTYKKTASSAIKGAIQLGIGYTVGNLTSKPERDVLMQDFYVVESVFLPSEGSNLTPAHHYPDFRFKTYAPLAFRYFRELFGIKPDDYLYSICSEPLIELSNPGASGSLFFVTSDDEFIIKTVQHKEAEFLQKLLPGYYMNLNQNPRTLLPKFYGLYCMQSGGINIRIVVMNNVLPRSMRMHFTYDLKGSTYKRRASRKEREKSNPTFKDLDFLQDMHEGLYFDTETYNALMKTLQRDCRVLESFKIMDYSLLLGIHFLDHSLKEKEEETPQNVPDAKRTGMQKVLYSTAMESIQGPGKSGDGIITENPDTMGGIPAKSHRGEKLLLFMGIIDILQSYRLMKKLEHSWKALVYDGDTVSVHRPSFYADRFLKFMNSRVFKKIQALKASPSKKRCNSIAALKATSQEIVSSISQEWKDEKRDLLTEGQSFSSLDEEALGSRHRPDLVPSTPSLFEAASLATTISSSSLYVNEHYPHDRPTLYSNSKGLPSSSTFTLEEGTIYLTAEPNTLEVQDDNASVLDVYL

inhibition at 10 µM [1] [%]	inhibition at 10 µM [2] [%]	inhibition at 10 µM [3] [%]	inhibition at 10 µM [4] [%]	inhibition at 10 µM [5] [%]	inhibition at 10 µM [6] [%]	inhibition at 10 µM [7] [%]	inhibition at 10 µM [8] [%]	inhibition at 10 µM [9] [%]	inhibition at 10 µM [10] [%]	inhibition at 10 µM [11] [%]	inhibition at 10 µM [12] [%]	inhibition at 10 µM [13] [%]	inhibition at 10 µM [14] [%]	inhibition at 10 µM [15] [%]	inhibition at 10 µM [16] [%]	inhibition at 10 µM [17] [%]	inhibition at 10 µM [18] [%]	inhibition at 10 µM [19] [%]	inhibition at 10 µM [20] [%]	Compound
61	69	13	31	56	75	90	15	90	5	42	90	81	71	33	86	80	92	18	5	O=c1c2cc(O)ccc2c2nccc3c4cc(O)ccc4n1c32 [MW01-E10, 5,16-dihydroxy-1,11-diazapentacyclo[10.7.1.0^2,^7.0^8,^20.0^13,^18]icosa-2(7),3,5,8(20),9,11,13(18),14,16-nonaen-19-one]
18	29	35	23	12	15	36	9	80	11	9	59	23	9	8	-4	24	12	14	26	COc1ccc2c(c1)c1ccnc3c4ccnc(OC)c4c(=O)n2c13 [MW01-E14, 5,17-dimethoxy-1,11,16-triazapentacyclo[10.7.1.0^2,^7.0^8,^20.0^13,^18]icosa-2(7),3,5,8(20),9,11,13(18),14,16-nonaen-19-one]
